{"source": "patent US4011327A", "about": "(priority 1975, dated 1977)", "type_in_all_cases": "cell-based", "key": {"Blastomyces dermatitidis": {"test_system": "Blastomyces dermatitidis", "assay": "Antifungal activity in vitro, mycelial growth on Sabouraud dextrose agar", "conditions": "for weekly increments of the diameter of colony: duplicates a, b; for MIC: Blastomyces dermatitidis"}, "Histoplasma capsulatum": {"test_system": "Histoplasma capsulatum", "assay": "microbe, parasite or virus in culture", "conditions": "for weekly increments of the diameter of colony: duplicates a, b; for MIC: Histoplasma capsulatum"}, "Trichophyton rubrum": {"test_system": "Trichophyton rubrum", "assay": "Antifungal activity in vitro, mycelial growth on Sabouraud dextrose agar", "conditions": "for weekly increments of the diameter of colony: duplicates a, b; for MIC: Trichophyton rubrum"}, "Sporotrichum schenckii": {"test_system": "Sporotrichum schenckii", "assay": "Antifungal activity in vitro, mycelial growth on Sabouraud dextrose agar", "conditions": "for weekly increments of the diameter of colony: duplicates a, b; for MIC: Sporothrix schenckii"}, "[1]": {"conditions": "336 h, two week period, read-out: minimum in vitro inhibitory concentration"}, "[2]": {"conditions": "336 h, read-out: minimum in vitro inhibitory concentration"}}, "note": "Several values for one entry are separate records, joined by “and”; a condition that tells them apart may be missing. Equal values may be shown once. Read-outs that look alike come from different tables or passages of the source."}
{"smiles": "CSC1(C)CCC2C(C)CCC(c3ccoc3)N2C1O", "note": "(single isomer, unassigned) [Example 7-MTDOL, 7β-methylthiodeoxynupharidin-6α-ol]", "values": [{"measurement": "weekly increments of the diameter of colony", "setting": "Blastomyces dermatitidis; 10 mcg/ml, week 1, No. 1107, 25° C", "value": 14, "unit": "mm"}, {"measurement": "weekly increments of the diameter of colony", "setting": "Blastomyces dermatitidis; 10 mcg/ml, week 2, No. 1107, 25° C", "value": "20 mm and 21 mm"}, {"measurement": "weekly increments of the diameter of colony", "setting": "Blastomyces dermatitidis; 10 mcg/ml, week 3, No. 1107, 25° C", "value": "35 mm and 32 mm"}, {"measurement": "weekly increments of the diameter of colony", "setting": "Blastomyces dermatitidis; 20 mcg/ml, week 1, No. 1107, 25° C", "value": 10, "unit": "mm"}, {"measurement": "weekly increments of the diameter of colony", "setting": "Blastomyces dermatitidis; 20 mcg/ml, week 2, No. 1107, 25° C", "value": "16 mm and 15 mm"}, {"measurement": "weekly increments of the diameter of colony", "setting": "Blastomyces dermatitidis; 20 mcg/ml, week 3, No. 1107, 25° C", "value": "17 mm and 18 mm"}, {"measurement": "weekly increments of the diameter of colony", "setting": "Blastomyces dermatitidis; 40 mcg/ml, week 1, No. 1107, 25° C", "value": "7 mm and 6 mm"}, {"measurement": "weekly increments of the diameter of colony", "setting": "Blastomyces dermatitidis; 40 mcg/ml, week 2, No. 1107, 25° C", "value": 15, "unit": "mm"}, {"measurement": "weekly increments of the diameter of colony", "setting": "Blastomyces dermatitidis; 40 mcg/ml, week 3, No. 1107, 25° C", "value": "20 mm and 28 mm"}, {"measurement": "weekly increments of the diameter of colony", "setting": "Blastomyces dermatitidis; 60 mcg/ml, week 1, No. 1107, 25° C", "value": 0, "unit": "mm"}, {"measurement": "weekly increments of the diameter of colony", "setting": "Blastomyces dermatitidis; 60 mcg/ml, week 2, No. 1107, 25° C", "value": 5, "unit": "mm"}, {"measurement": "weekly increments of the diameter of colony", "setting": "Blastomyces dermatitidis; 60 mcg/ml, week 3, No. 1107, 25° C", "value": "5 mm and 7 mm"}, {"measurement": "weekly increments of the diameter of colony", "setting": "Blastomyces dermatitidis; 80 mcg/ml, week 1, No. 1107, 25° C", "value": 0, "unit": "mm"}, {"measurement": "weekly increments of the diameter of colony", "setting": "Blastomyces dermatitidis; 80 mcg/ml, week 2, No. 1107, 25° C", "value": 0, "unit": "mm"}, {"measurement": "weekly increments of the diameter of colony", "setting": "Blastomyces dermatitidis; 100 mcg/ml, week 1, No. 1107, 25° C", "value": 0, "unit": "mm"}, {"measurement": "MIC", "setting": "Blastomyces dermatitidis; [1]", "value": 80, "unit": "µg/mL"}, {"measurement": "MIC", "setting": "Blastomyces dermatitidis; 504 h, up to the end of 3 weeks, Sabouraud dextrose agar, read-out: concentration inhibiting mycelial growth", "value": 80, "unit": "µg/mL"}, {"measurement": "weekly increments of the diameter of colony", "setting": "Histoplasma capsulatum; 10 mcg/ml, week 2, No. 1106, 25° C", "value": "15 mm and 10 mm"}, {"measurement": "weekly increments of the diameter of colony", "setting": "Histoplasma capsulatum; 10 mcg/ml, week 3, No. 1106, 25° C", "value": "25 mm and 29 mm"}, {"measurement": "weekly increments of the diameter of colony", "setting": "Histoplasma capsulatum; 20 mcg/ml, week 1, No. 1106, 25° C", "value": 0, "unit": "mm"}, {"measurement": "weekly increments of the diameter of colony", "setting": "Histoplasma capsulatum; 20 mcg/ml, week 3, No. 1106, 25° C", "value": "10 mm and 5 mm"}, {"measurement": "weekly increments of the diameter of colony", "setting": "Histoplasma capsulatum; 40 mcg/ml, week 1, No. 1106, 25° C", "value": 0, "unit": "mm"}, {"measurement": "weekly increments of the diameter of colony", "setting": "Histoplasma capsulatum; 60 mcg/ml, week 1, No. 1106, 25° C", "value": 0, "unit": "mm"}, {"measurement": "weekly increments of the diameter of colony", "setting": "Histoplasma capsulatum; 60 mcg/ml, week 2, No. 1106, 25° C", "value": 0, "unit": "mm"}, {"measurement": "weekly increments of the diameter of colony", "setting": "Histoplasma capsulatum; 60 mcg/ml, week 3, No. 1106, 25° C", "value": 0, "unit": "mm"}, {"measurement": "weekly increments of the diameter of colony", "setting": "Histoplasma capsulatum; 80 mcg/ml, week 1, No. 1106, 25° C", "value": 0, "unit": "mm"}, {"measurement": "weekly increments of the diameter of colony", "setting": "Histoplasma capsulatum; 80 mcg/ml, week 2, No. 1106, 25° C", "value": 0, "unit": "mm"}, {"measurement": "weekly increments of the diameter of colony", "setting": "Histoplasma capsulatum; 80 mcg/ml, week 3, No. 1106, 25° C", "value": 0, "unit": "mm"}, {"measurement": "weekly increments of the diameter of colony", "setting": "Histoplasma capsulatum; 100 mcg/ml, week 1, No. 1106, 25° C", "value": 0, "unit": "mm"}, {"measurement": "weekly increments of the diameter of colony", "setting": "Histoplasma capsulatum; 100 mcg/ml, week 2, No. 1106, 25° C", "value": 0, "unit": "mm"}, {"measurement": "weekly increments of the diameter of colony", "setting": "Histoplasma capsulatum; 100 mcg/ml, week 3, No. 1106, 25° C", "value": 0, "unit": "mm"}, {"measurement": "MIC", "setting": "Histoplasma capsulatum; [2]", "value": 40, "unit": "µg/mL"}, {"measurement": "MIC", "setting": "Histoplasma capsulatum; 504 h, read-out: concentration inhibiting mycelial growth", "value": 40, "unit": "µg/mL"}, {"measurement": "weekly increments of the diameter of colony", "setting": "Trichophyton rubrum; 10 mcg/ml, week 1, No. 1112, 25° C", "value": "10 mm and 11 mm"}, {"measurement": "weekly increments of the diameter of colony", "setting": "Trichophyton rubrum; 10 mcg/ml, week 2, No. 1112, 25° C, colony overgrown by adjacent culture", "value": 20, "unit": "mm"}, {"measurement": "weekly increments of the diameter of colony", "setting": "Trichophyton rubrum; 10 mcg/ml, week 3, No. 1112, 25° C, colony overgrown by adjacent culture", "value": "22 mm and 25 mm"}, {"measurement": "weekly increments of the diameter of colony", "setting": "Trichophyton rubrum; 20 mcg/ml, week 1, No. 1112, 25° C", "value": "8 mm and 7 mm"}, {"measurement": "weekly increments of the diameter of colony", "setting": "Trichophyton rubrum; 20 mcg/ml, week 2, No. 1112, 25° C", "value": "21 mm and 20 mm"}, {"measurement": "weekly increments of the diameter of colony", "setting": "Trichophyton rubrum; 20 mcg/ml, week 3, No. 1112, 25° C, b: colony overgrown by adjacent culture", "value": "30 mm and 22 mm"}, {"measurement": "weekly increments of the diameter of colony", "setting": "Trichophyton rubrum; 40 mcg/ml, week 1, No. 1112, 25° C", "value": "8 mm and 6 mm"}, {"measurement": "weekly increments of the diameter of colony", "setting": "Trichophyton rubrum; 40 mcg/ml, week 2, No. 1112, 25° C", "value": "20 mm and 18 mm"}, {"measurement": "weekly increments of the diameter of colony", "setting": "Trichophyton rubrum; 40 mcg/ml, week 3, No. 1112, 25° C", "value": "30 mm and 26 mm"}, {"measurement": "weekly increments of the diameter of colony", "setting": "Trichophyton rubrum; 60 mcg/ml, week 2, No. 1112, 25° C", "value": "8 mm and 6 mm"}, {"measurement": "weekly increments of the diameter of colony", "setting": "Trichophyton rubrum; 60 mcg/ml, week 3, No. 1112, 25° C", "value": "14 mm and 15 mm"}, {"measurement": "weekly increments of the diameter of colony", "setting": "Trichophyton rubrum; 80 mcg/ml, week 1, No. 1112, 25° C", "value": 0, "unit": "mm"}, {"measurement": "weekly increments of the diameter of colony", "setting": "Trichophyton rubrum; 80 mcg/ml, week 2, No. 1112, 25° C", "value": 5, "unit": "mm"}, {"measurement": "weekly increments of the diameter of colony", "setting": "Trichophyton rubrum; 80 mcg/ml, week 3, No. 1112, 25° C", "value": "9 mm and 6 mm"}, {"measurement": "weekly increments of the diameter of colony", "setting": "Trichophyton rubrum; 100 mcg/ml, week 3, No. 1112, 25° C", "value": "6 mm and 7 mm"}, {"measurement": "MIC", "setting": "Trichophyton rubrum; [2]", "value": 100, "unit": "µg/mL"}, {"measurement": "MIC", "setting": "Trichophyton rubrum; 504 h, read-out: concentration inhibiting growth", "value": 100, "unit": "µg/mL"}, {"measurement": "weekly increments of the diameter of colony", "setting": "Sporotrichum schenckii; 10 mcg/ml, week 1, No. 1109, 25° C", "value": "11 mm and 10 mm"}, {"measurement": "weekly increments of the diameter of colony", "setting": "Sporotrichum schenckii; 10 mcg/ml, week 2, No. 1109, 25° C", "value": "25 mm and 24 mm"}, {"measurement": "weekly increments of the diameter of colony", "setting": "Sporotrichum schenckii; 20 mcg/ml, week 2, No. 1109, 25° C", "value": 20, "unit": "mm"}, {"measurement": "weekly increments of the diameter of colony", "setting": "Sporotrichum schenckii; 20 mcg/ml, week 3, No. 1109, 25° C", "value": "31 mm and 29 mm"}, {"measurement": "weekly increments of the diameter of colony", "setting": "Sporotrichum schenckii; 40 mcg/ml, week 2, No. 1109, 25° C, a: colony overgrown by adjacent culture", "value": "18 mm and 15 mm"}, {"measurement": "weekly increments of the diameter of colony", "setting": "Sporotrichum schenckii; 40 mcg/ml, week 3, No. 1109, 25° C, a: colony overgrown by adjacent culture", "value": "18 mm and 25 mm"}, {"measurement": "weekly increments of the diameter of colony", "setting": "Sporotrichum schenckii; 60 mcg/ml, week 1, No. 1109, 25° C", "value": 0, "unit": "mm"}, {"measurement": "weekly increments of the diameter of colony", "setting": "Sporotrichum schenckii; 60 mcg/ml, week 2, No. 1109, 25° C", "value": 10, "unit": "mm"}, {"measurement": "weekly increments of the diameter of colony", "setting": "Sporotrichum schenckii; 60 mcg/ml, week 3, No. 1109, 25° C", "value": 20, "unit": "mm"}, {"measurement": "weekly increments of the diameter of colony", "setting": "Sporotrichum schenckii; 80 mcg/ml, week 1, No. 1109, 25° C", "value": 0, "unit": "mm"}, {"measurement": "weekly increments of the diameter of colony", "setting": "Sporotrichum schenckii; 80 mcg/ml, week 2, No. 1109, 25° C", "value": 0, "unit": "mm"}, {"measurement": "weekly increments of the diameter of colony", "setting": "Sporotrichum schenckii; 100 mcg/ml, week 1, No. 1109, 25° C", "value": 0, "unit": "mm"}, {"measurement": "weekly increments of the diameter of colony", "setting": "Sporotrichum schenckii; 100 mcg/ml, week 2, No. 1109, 25° C", "value": 0, "unit": "mm"}, {"measurement": "weekly increments of the diameter of colony", "setting": "Sporotrichum schenckii; 100 mcg/ml, week 3, No. 1109, 25° C", "value": 0, "unit": "mm"}, {"measurement": "MIC", "setting": "Sporotrichum schenckii; [1]", "value": 100, "unit": "µg/mL"}, {"measurement": "MIC", "setting": "Sporotrichum schenckii; 504 h, up to the end of 3 weeks, Sabouraud dextrose agar, read-out: concentration inhibiting growth", "value": 100, "unit": "µg/mL"}]}
